Paper PMC3050713 (Cancer chemotherapy and pharmacology, 2008)
Structures can show the parent of a compound that is named as a salt. Where two headings read alike, the source gives them in different places.

How the values were obtained:
[1] = cited from earlier work
A2780 ovarian tumors = settings: twice daily intra-peritoneal for 5-6 days at 8-10 mg/kg/dose; cited from earlier work
[2] = Phase 1 dose escalation: toxicity, DLT and MTD of Triapine with doxorubicin; assay type: in vivo, human
[3] = Triapine pharmacokinetics in plasma and erythrocytes; assay type: in vivo, human; settings: for Tmax: 45 mg/m2, Tmax, Triapine 25 or 45 mg/m2, cycle 1 day 1
[4] = tested on: Madison 109 (M109) lung tumors; settings: twice daily intra-peritoneal for 5-6 days at 8-10 mg/kg/dose; cited from earlier work
L1210 leukemia = settings: murine models; cited from earlier work
[5] = Doxorubicin pharmacokinetics in plasma; settings: mean
clinical = settings: human
[6] = cited from earlier work; remark: listed apart in the source
[7] = 2 hour IV infusions for 5 days of every 28 day cycle
[8] = human, erythrocytes, intravenous

NC(=S)NN=Cc1ncccc1N [Triapine, 3-aminopyridine-2-carboxaldehyde thiosemicarbazone]
major DLT ([1]; 2-hour infusion daily x 5 schedule): transient neutropenia | patients with grade 2 anemia [1, 7]: 73% | patients with grade 3 anemia [1, 7]: 22% | patients with grade 3 or 4 thrombocytopenia [1, 7]: 22% | patients with grade 4 leucopenia in at least one course [1, 7]: 93% | single-agent MTD [1, 7]: 96 mg/m^2 | toxicities associated with the infusion ([1]; 2 hour infusion of ≥ 140 mg/m^2): reversible hypotension, hypoxia, dyspnea, cough, and EKG changes including ST-T wave changes and prolongation of the QT interval | DLTs ([1]; single 2-hour IV infusion every 4 weeks, doses up to 105 mg/m^2): no DLTs were observed | anti-tumor activity ([1]; single 2-hour IV infusion every 4 weeks): no anti-tumor activity was observed | recommended phase II dose ([1]; single agent, daily for 4 days): 96 mg/m2 | effect on tumors (A2780 ovarian tumors): effective | recommended phase II combination dose ([2]; Triapine 2 hour infusion on days 1-4): 25 mg/m^2 | Cmax ([3]; erythrocytes, dose adjusted, mean): 710 ng/mL | Cl ([3]; erythrocytes, mean): 0.34 mL/min/m^2 | Vss ([3]; erythrocytes, mean): 83 L/m^2 | AUC(0-inf) [3, 8]: 1450 ng·h/mL | Cmax [3, 8]: 710 ± 180 ng/mL | half-life ([3]; human, erythrocytes, intravenous, 45 mg/m2): 4.2 h | Tmax ([3]; human, erythrocytes, intravenous, erythrocytes, mean): 0.04 h | AUC(0-inf) ([3]; human, plasma, intravenous): 1210 ng·h/mL | Cmax ([3]; human, plasma, intravenous): 650 ± 180 ng/mL | Tmax ([3]; human, plasma, intravenous, plasma, mean): 0.22 ± 0.11 h | half-life ([3]; human, plasma, iv): 5.3 h | Cmax ([3]; plasma, dose adjusted, mean): 650 ng/mL | Cl ([3]; plasma, mean): 0.38 mL/min/m^2 | Vss ([3]; plasma, mean): 107 L/m^2 | effect on tumors [4]: effective | anti-tumor activity (L1210 leukemia): displayed anti-tumor activity

COc1cccc2c1C(=O)c1c(O)c3c(c(O)c1C2=O)C[C@@](O)(C(=O)CO)C[C@@H]3O[C@H]1C[C@H](N)[C@H](O)[C@H](C)O1 [doxorubicin, Doxorubicin hydrochloride]
Cl [5]: 252 mL/min/m^2 | Vss [5]: 219 L/m^2 | half-life (clinical; in vivo, iv): 10.1 h | Tmax (clinical; plasma, intravenous): 0.2 h | incidence of CHF ([6]; cumulative dose 450 mg/m^2): 4% | incidence of CHF ([6]; cumulative dose up to 300 mg/m^2): 1% | patients with leucopenia ([6]; doxorubicin 60 mg/m^2 every 21 days): approximately 75% | recommended phase II combination dose ([2]; doxorubicin IV bolus on day 1 immediately following Triapine): 60 mg/m^2
